In patent US20250098679A1, “HERBICIDAL PYRIDONE DERIVATIVES” (SYNGENTA CROP PROTECTION AG, priority 2021, published 2025):

Legend:
Assay type in all cases: in vivo
Details in all cases: evaluated after 13 days
[1] = test system: Amaranthus retoflexus (AMARE); experiment: Pre-emergence Test, Amaranthus retoflexus (AMARE)
[2] = test system: Ipomoea hederacea (IPOHE); experiment: Pre-emergence Test, Ipomoea hederacea (IPOHE)
Zea mays (ZEAMX) [3] = experiment: Pre-emergence Test, Zea mays (ZEAMX)
Setaria faberi (SETFA) [4] = experiment: Pre-emergence Test, Setaria faberi (SETFA)
[5] = test system: Amaranthus retoflexus (AMARE); experiment: Post-emergence Test, Amaranthus retoflexus (AMARE); design: key to percentage damage caused to the plant, AMARE (five-point scale): 5=81-100%, 4=61-80%, 3=41-60%, 2=21-40%, 1=0-20% damage
Method in brief: (§1)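 Percent plant damage was rated 13 days post-application on a 1–5 scale (1=0-20%, 5=81-100%). Application used an aqueous acetone (50:50)/0.5% Tween 20 spray, normally 1000 g/ha, with controlled glasshouse conditions (24/16 °C, 14 h light, 65% humidity).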

[6] = test system: Amaranthus palmeri (AMAPA); experiment: Post-emergence Test, Amaranthus palmeri (AMAPA); design: key: 5=81-100%, 4=61-80%, 3=41-60%, 2=21-40%, 1=0-20% damage
Method in brief: as §1

[7] = test system: Echinochloa crus-galli (ECHCG); experiment: Post-emergence Test, Echinochloa crus-galli (ECHCG); design: key to percentage damage caused to the plant, ECHCG (five-point scale): 5=81-100%, 4=61-80%, 3=41-60%, 2=21-40%, 1=0-20% damage
Method in brief: as §1

Setaria faberi (SETFA) [8] = experiment: Post-emergence Test, Setaria faberi (SETFA); design: key to percentage damage caused to the plant, SETFA (five-point scale): 5=81-100%, 4=61-80%, 3=41-60%, 2=21-40%, 1=0-20% damage
Method in brief: as §1

[9] = test system: Ipomoea hederacea (IPOHE); experiment: Post-emergence Test, Ipomoea hederacea (IPOHE); design: key to percentage damage caused to the plant, IPOHE (five-point scale): 5=81-100%, 4=61-80%, 3=41-60%, 2=21-40%, 1=0-20% damage
Method in brief: as §1

[10] = test system: Echinochloa crus-galli (ECHCG); experiment: Pre-emergence Test, Echinochloa crus-galli (ECHCG)
Zea mays (ZEAMX) [11] = experiment: Post-emergence Test, Zea mays (ZEAMX); design: key to percentage damage caused to the plant, ZEAMX (five-point scale): 5=81-100%, 4=61-80%, 3=41-60%, 2=21-40%, 1=0-20% damage
Method in brief: as §1

[12] = test system: Amaranthus palmeri (AMAPA); experiment: Pre-emergence Test, Amaranthus palmeri (AMAPA)

Row | Structure (SMILES) | Pre-emergence Test AMARE, percentage damage caused to the plant (five-point scale) ([1]; 1000 g/ha) | Pre-emergence Test IPOHE, percentage damage caused to the plant (five-point scale) ([2]; 1000 g/ha) | Pre-emergence Test ZEAMX, percentage damage caused to the plant (five-point scale) (Zea mays (ZEAMX) [3]; 1000 g/ha) | Pre-emergence Test SETFA, percentage damage caused to the plant (five-point scale) (Setaria faberi (SETFA) [4]; 1000 g/ha) | percentage damage caused to the plant, AMARE (five-point scale) ([5]; 1000 g/ha) | percentage damage caused to the plant, AMAPA (five-point scale) ([6]; 1000 g/ha) | percentage damage caused to the plant, ECHCG (five-point scale) ([7]; 1000 g/ha) | percentage damage caused to the plant, SETFA (five-point scale) (Setaria faberi (SETFA) [8]; 1000 g/ha) | percentage damage caused to the plant, IPOHE (five-point scale) ([9]; 1000 g/ha) | Pre-emergence Test ECHCG, percentage damage caused to the plant (five-point scale) ([10]; 1000 g/ha) | percentage damage caused to the plant, ZEAMX (five-point scale) (Zea mays (ZEAMX) [11]; 1000 g/ha) | Pre-emergence Test AMAPA, percentage damage caused to the plant (five-point scale) ([12]; 1000 g/ha) | percentage damage caused to the plant, AMARE (five-point scale) ([5]; 250 g/Ha) | percentage damage caused to the plant, AMAPA (five-point scale) ([6]; 250 g/Ha) | percentage damage caused to the plant, ECHCG (five-point scale) ([7]; 250 g/Ha) | percentage damage caused to the plant, SETFA (five-point scale) (Setaria faberi (SETFA) [8]; 250 g/Ha) | percentage damage caused to the plant, IPOHE (five-point scale) ([9]; 250 g/Ha) | percentage damage caused to the plant, ZEAMX (five-point scale) (Zea mays (ZEAMX) [11]; 250 g/Ha) | other results
1 | CCOC(=O)c1c(-c2ccc(Cl)c(Cl)c2)n(CC)c(Cn2cc(F)cn2)cc1=O [Compound 8, ethyl 2-(3,4-dichlorophenyl)-1-ethyl-6-[(4-fluoropyrazol-1-yl)methyl]-4-oxo-pyridine-3-carboxylate] | 0 | 1 (1=0-20%) | 0 | 1 (1=0-20%) | 1 (1=0-20%) | 1 (1=0-20%) | 1 (1=0-20%) | 4 (4=61-80%) | 1 (1=0-20%) | 3 (3=41-60%) | 1 (1=0-20%) | 0 |  |  |  |  |  |  | 
2 | CCn1c(Cn2cc(C)c(C(F)(F)F)n2)cc(=O)c(C(=O)O)c1-c1ccc(Cl)c(Cl)c1 [Compound 96, 2-(3,4-dichlorophenyl)-1-ethyl-6-[[4-methyl-3-(trifluoromethyl)pyrazol-1-yl]methyl]-4-oxo-pyridine-3-carboxylic acid] | 1 (1=0-20%) | 1 (1=0-20%) | 0 | 3 (3=41-60%) | 1 (1=0-20%) | 0 | 2 (2=21-40%) | 3 (3=41-60%) | 0 | 3 (3=41-60%) | 4 (4=61-80%) | 1 (1=0-20%) | 0 | 0 | 2 (2=21-40%) | 0 | 0 | 0 | 
3 | CCn1c(Cn2nc(C(F)(F)F)cc2C)cc(=O)c(C(=O)O)c1-c1ccc(Cl)c(Cl)c1 [Compound 13a, 2-(3,4-dichlorophenyl)-1-ethyl-6-[[5-methyl-3-(trifluoromethyl)pyrazol-1-yl]methyl]-4-oxo-pyridine-3-carboxylic acid] | 0 | 0 | 0 | 4 (4=61-80%) | 0 | 2 (2=21-40%) | 4 (4=61-80%) | 4 (4=61-80%) | 2 (2=21-40%) | 3 (3=41-60%) | 3 (3=41-60%) | 0 | 1 (1=0-20%) | 0 | 2 (2=21-40%) | 3 (3=41-60%) | 3 (3=41-60%) | 0 | Pre-emergence Test AMARE, percentage damage caused to the plant (five-point scale) ([1]; 250 g/Ha (*)): 0; Pre-emergence Test IPOHE, percentage damage caused to the plant (five-point scale) ([2]; 250 g/Ha (*)): 0; Pre-emergence Test ZEAMX, percentage damage caused to the plant (five-point scale) (Zea mays (ZEAMX) [3]; 250 g/Ha (*)): 0; Pre-emergence Test SETFA, percentage damage caused to the plant (five-point scale) (Setaria faberi (SETFA) [4]; 250 g/Ha (*)): 2 (2=21-40%); Pre-emergence Test ECHCG, percentage damage caused to the plant (five-point scale) ([10]; 250 g/Ha (*)): 2 (2=21-40%); Pre-emergence Test AMAPA, percentage damage caused to the plant (five-point scale) ([12]; 250 g/Ha (*)): 1 (1=0-20%)
